From patent US20030096237A1, “Determination of the ability of patients to respond to a tumor treatment” (priority 2000, published 2003)

Tested on: CNCM I-2546
Assay: oligonucleotide array analysis of IFN-α modulated gene expression
Assay type: cell-based, human
Design: key to nAD M94880 mhc class i (hla-a*8001): normalized average difference between perfect and mismatch probeset signals
Experimental: All these cell lines were cultured in RPMI medium supplemented with 10% FCS, glutamine (2 mM), sodium pyruvate (1 mM), non-essential amino acids and HEPES buffer (10 mM) (all from GIBCO Life Sciences, Paisley, UK). When confluent, the cells were passaged by trypsinization.
Cultured melanoma cells were harvested by scraping and total cellular RNA was extracted. 10 μg from each sample were used directly as templates for cDNA synthesis using a commercial kit (Roche Molecular Biochemicals, Rotkreuz, Switzerland). The T7 promoter sequence incorporated into the cDNA synthesis primer allowed template amplification and biotin labeling by in vitro transcription using a commercial kit (Affymetrix, Santa Clara, Calif.). After alkaline heat fragmentation […] was hybridised to the array (Affymetrix, Santa Clara, Calif.) and all subsequent steps were performed following standard procedures as supplied with the arrays. Raw data were collected with a confocal laser scanner (Hewlett Packard, Palo Alto, Calif.) using GeneChip software v3.1 (Affymetrix, Santa Clara, Calif.).
Raw data were normalized based on the total chip signal obtained upon hybridisation of ME15 cell line cDNA. This array was selected because: i) the 5′/3′ intensity ratio of control genes was smaller than 3; ii)>25% of the genes are called “present” by Genechip; iii) the image appearance is homogeneous with low background and no sign of mechanical chip damage.
The normalized average difference (nAD) between the signals of the perfect and of the mismatch probesets for each gene was used as the expression level of a given gene. At least one nAD value in a pairwise comparison of data has to exceed 50 to be included. Based on nAD, change factors related to IFN-α exposure were also calculated. Negative nAD values were set to 20 in order to avoid the calculation of artificially high modifications. In order to exclude artefacts, only genes with robust change factors, greater than 2-fold, were included in the analysis. […] Genes were clustered according to their mode of regulation.
Total cellular RNA was extracted from the sensitive and resistant melanoma cell lines identified above, reverse transcribed and processed for hybridization to an oligonucleotide array (Hu6800FL, PN 900183) containing probe sets derived from 7000 full-length human genes. Expression levels for each gene were calculated as normalized average difference (nAD, see materials and methods).
Patterns of genes expressed in IFN-α sensitive and resistant melanoma cell lines were investigated upon 48 hour culture in the presence of IFN-α. CNCM I-2546 and CNCM I-2545 were studied in detail.
In Table 2 below, CNCM I-2546 and CNCM I-2545 cultured for 48 hours in the absence or in the presence of 100 U/ml IFN-α were used to assay cytokine modulated gene expression as matched with data obtained in fibrosarcoma cells. This analysis yielded six clusters of genes. […] Data are presented as average difference of signal intensity between match and mismatch probesets.
In Table 3 below, CNCM I-2546 and CNCM I-2545 cell lines cultured for 48 hours in the absence or in the presence of 100 U/ml IFN-α were used to identify novel cytokine induced genes whose expression was not found to be modulated in fibrosarcoma cells. Cluster 1 includes genes inducible in the CNCM I-2546 sensitive but not in the CNCM I-2545 resistant cell line. Cluster 2 comprises genes inducible in both lines. Data are presented as average difference of signal intensity between match and mismatch probesets.

[1] = CNCM I-2546 (+) IFN-α 100 U/ml 48 hours, (−) 0
[2] = CNCM I-2546 (+) IFN-α 100 U/ml 48 hours, (−) 24
[3] = CNCM I-2546 (+) IFN-α 100 U/ml 48 hours, (−) 43
[4] = CNCM I-2546 (+) IFN-α 100 U/ml 48 hours, (−) 55
[5] = CNCM I-2546 (+) IFN-α 100 U/ml 48 hours, (−) 77
[6] = CNCM I-2546 (+) IFN-α 100 U/ml 48 hours, (−) 107
[7] = CNCM I-2546 (+) IFN-α 100 U/ml 48 hours, (−) 110
[8] = CNCM I-2546 (+) IFN-α 100 U/ml 48 hours, (−) 150

nAD L37043 casein kinase i epsilon [1]: 441 | nAD L40387 thyroid receptor interactor (trip14) [1]: 85 | nAD D32050 alanyl-trna synthetase (CNCM I-2546 (+) IFN-α 100 U/ml 48 hours, (−) 21): 427 | nAD L42243 ifnar2 gene (interferon receptor) (CNCM I-2546 (+) IFN-α 100 U/ml 48 hours, (−) 46): −4 | nAD M19650 2′,3′-cyclic nucleotide 3prime-phosphodiesterase [4]: 269 | nAD X95325 dna binding protein a variant (CNCM I-2546 (+) IFN-α 100 U/ml 48 hours, (−) 58): 375 | nAD Z26491 gene catechol o-methyltransferase (CNCM I-2546 (+) IFN-α 100 U/ml 48 hours, (−) 73): 337 | nAD U69126 fuse binding protein 2 (fbp2) [5]: 302 | nAD U50327 protein kinase c substrate 80k-h gene (prkcsh) (CNCM I-2546 (+) IFN-α 100 U/ml 48 hours, (−) 80): 312 | nAD U70063 human acid ceramidase (CNCM I-2546 (+) IFN-α 100 U/ml 48 hours, (−) 86): 221 | nAD L35249 vacuolar h + -atpase mr 56,000 subunit (ho57) (CNCM I-2546 (+) IFN-α 100 U/ml 48 hours, (−) 92): 227 | nAD U18018 ela enhancer binding protein (ela-f) [6]: 340 | nAD U65579 mitochondrial nadh dehydrogenase-ubiquinone [7]: 377 | nAD D78132 rheb gene, ras-related gtp binding protein gene (CNCM I-2546 (+) IFN-α 100 U/ml 48 hours, (−) 119): 307 | nAD X70848 protein phosphatase 1, catalytic subunit (CNCM I-2546 (+) IFN-α 100 U/ml 48 hours, (−) 122): 370 | nAD U91316 acyl-coa thioester hydrolase (CNCM I-2546 (+) IFN-α 100 U/ml 48 hours, (−) 141): 706 | nAD U47025 fetal brain glycogen phosphorylase b (CNCM I-2546 (+) IFN-α 100 U/ml 48 hours, (−) 193): 924 | nAD Z47055 farnesyl pyrophosphate synthetase like (CNCM I-2546 (+) IFN-α 100 U/ml 48 hours, (−) 263): 529 | nAD X90846 mixed lineage kinase 2 (CNCM I-2546 (+) IFN-α 100 U/ml 48 hours, (−) 425): 173 | nAD L13210 mac-2 binding protein (CNCM I-2546 (+) IFN-α 100 U/ml 48 hours, (−) 444): 2016 | nAD U50648 interferon-inducible rna-dependent protein kinase (pkr) (CNCM I-2546 (+) IFN-α 100 U/ml 48 hours, (−) −70): 71
Substance: IFN-α
nAD U51127 interferon regulatory factor 5 (CNCM I-2546 (+) IFN-α 100 U/ml 48 hours, (−) 3): 116 | nAD Z56281 interferon regulatory factor 3 (CNCM I-2546 (+) IFN-α 100 U/ml 48 hours, (−) 12): 136 | nAD M98343 amplaxin (ems1) (CNCM I-2546 (+) IFN-α 100 U/ml 48 hours, (−) 15): 141 | nAD J03909 gamma-interferon-inducible protein (ip-30) (CNCM I-2546 (+) IFN-α 100 U/ml 48 hours, (−) 18): 57 | nAD M60784 ul snrnp-specific protein [2]: 216 | nAD X57351 1-8d gene from interferon-inducible gene family [2]: 297 | nAD D28137 bst-2 (CNCM I-2546 (+) IFN-α 100 U/ml 48 hours, (−) 28): 305 | nAD S81914 iex-1 = radiation-inducible immediate-early gene (CNCM I-2546 (+) IFN-α 100 U/ml 48 hours, (−) 31): 312 | nAD X96401 rox protein (CNCM I-2546 (+) IFN-α 100 U/ml 48 hours, (−) 34): 143 | nAD M79462 pml-1 [3]: 1 | nAD U22970 16-jun gene, interferon-inducible peptide (6-16) [3]: 2363 | nAD U52513 rig-g (CNCM I-2546 (+) IFN-α 100 U/ml 48 hours, (−) 49): 96 | nAD K01900 lymphocyte interferon alpha type 201 [4]: 85 | nAD X15949 interferon regulatory factor-2 (irf-2) (CNCM I-2546 (+) IFN-α 100 U/ml 48 hours, (−) 67): 11 | nAD X76538 mpv17 [5]: 313 | nAD U09579 melanoma differentiation associated (mda-6) (CNCM I-2546 (+) IFN-α 100 U/ml 48 hours, (−) 83): 361 | nAD Y00264 amyloid a4 precursor (CNCM I-2546 (+) IFN-α 100 U/ml 48 hours, (−) 89): 304 | nAD U41515 dss1 (CNCM I-2546 (+) IFN-α 100 U/ml 48 hours, (−) 104): 51 | nAD X04412 plasma gelsolin [6]: 372 | nAD D50914 EST [7]: 359 | nAD U72206 guanine nucleotide regulatory factor (lfp40) (CNCM I-2546 (+) IFN-α 100 U/ml 48 hours, (−) 113): 459 | nAD M31013 nonmuscle myosin heavy chain (nmhc) (CNCM I-2546 (+) IFN-α 100 U/ml 48 hours, (−) 132): 441 | nAD J00212 leukocyte interferon (ifn-alpha) (CNCM I-2546 (+) IFN-α 100 U/ml 48 hours, (−) 138): 49 | nAD D49824 hla-b null allele (CNCM I-2546 (+) IFN-α 100 U/ml 48 hours, (−) 144): 925 | nAD HG2917 major histocompatibility complex, class i, e (CNCM I-2546 (+) IFN-α 100 U/ml 48 hours, (−) 147): 813 | nAD D21235 hhr23a protein [8]: 582 | nAD U61263 acetolactate synthase homolog [8]: 464 | nAD M65028 heterogeneous nuclear ribonucleoprotein a/b (CNCM I-2546 (+) IFN-α 100 U/ml 48 hours, (−) 153): 326 | nAD HG658 major histocompatibility complex, class 1 c (CNCM I-2546 (+) IFN-α 100 U/ml 48 hours, (−) 156): 1692 | nAD J04182 lysosomal membrane glycoprotein-1 (lamp1) (CNCM I-2546 (+) IFN-α 100 U/ml 48 hours, (−) 168): 452 | nAD L07633 interferon-gamma (CNCM I-2546 (+) IFN-α 100 U/ml 48 hours, (−) 184): 463 | nAD U18009 chromosome 17q21 clone lf113 (CNCM I-2546 (+) IFN-α 100 U/ml 48 hours, (−) 187): 735 | nAD M94880 mhc class i (hla-a*8001) (CNCM I-2546 (+) IFN-α 100 U/ml 48 hours, (−) 202): 932 | nAD J00105 beta-2 microglobulin gene (CNCM I-2546 (+) IFN-α 100 U/ml 48 hours, (−) 248): 1453 | nAD U78525 human eukaryotic translation initiation factor (eif3) (CNCM I-2546 (+) IFN-α 100 U/ml 48 hours, (−) 275): 589 | nAD U65932 extracellular matrix protein 1 (ecm1) (CNCM I-2546 (+) IFN-α 100 U/ml 48 hours, (−) 300): 907 | nAD J04444 cytochrome c-1 gene (CNCM I-2546 (+) IFN-α 100 U/ml 48 hours, (−) 309): 1286 | nAD HG1612 macmarcks (CNCM I-2546 (+) IFN-α 100 U/ml 48 hours, (−) 401): 1440 | nAD M34338 spermidine synthase (CNCM I-2546 (+) IFN-α 100 U/ml 48 hours, (−) 429): 1413 | nAD K03515 neuroleukin (CNCM I-2546 (+) IFN-α 100 U/ml 48 hours, (−) 487): 2126 | nAD M30818 interferon-induced cellular resistance mediator protein (CNCM I-2546 (+) IFN-α 100 U/ml 48 hours, (−) 756): 155 | nAD U72882 interferon-induced leucine zipper protein (ifp35) (CNCM I-2546 (+) IFN-α 100 U/ml 48 hours, (−) −9): 502 | nAD U53830 interferon regulatory factor 7a (CNCM I-2546 (+) IFN-α 100 U/ml 48 hours, (−) −31): 237 | nAD M97935 transcription factor isgf-3 (CNCM I-2546 (+) IFN-α 100 U/ml 48 hours, (−) −37): 296 | nAD X57522 ring4 cdna (CNCM I-2546 (+) IFN-α 100 U/ml 48 hours, (−) −49): 97 | nAD X07730 prostate specific antigen (CNCM I-2546 (+) IFN-α 100 U/ml 48 hours, (−) −64): 132 | nAD U01824 glutamate/aspartate transporter (CNCM I-2546 (+) IFN-α 100 U/ml 48 hours, (−) −73): 91 | nAD J04164 interferon-inducible protein 27-sep (CNCM I-2546 (+) IFN-α 100 U/ml 48 hours, (−) −89): 2066 | nAD M92642 alpha-1 type xvi collagen (col16a1) (CNCM I-2546 (+) IFN-α 100 U/ml 48 hours, (−) −147): −133 | nAD M13755 interferon-induced 17-kda/15-kda protein (CNCM I-2546 (+) IFN-α 100 U/ml 48 hours, (−) −181): 716 | nAD X67325 p27 (CNCM I-2546 (+) IFN-α 100 U/ml 48 hours, (−) −211): 410 | change factor (CF) D21235 hhr23a protein (CNCM I-2546, IFN-α 100 U/ml 48 hours): 2.88
